Measurements reported in paper PMC6132687, “Stem cells are the most sensitive screening tool to identify toxicity of GATA4-targeted novel small-molecule compounds” (Archives of Toxicology, 2018).

What was measured:
[1] = test system: primary neonatal rat ventricular cardiomyocytes (NRVCs); test: MTT assay in NRVCs; format: cell-based; conditions: 24 h
Method: (§1) The cells were exposed to the test compounds for 24 h and cytotoxicity was quantified with MTT and LDH assays as described previously (Talman et al. [2011]). For the determination of cell membrane integrity, 50 µl of medium from each well was transferred onto a new 96-well plate followed by addition of 50 µl of substrate solution containing 1.3 mM β-nicotinamide adenine dinucleotide, 660 µM iodonitrotetrazolium, 54 mM L(+)-lactic acid, 280 µM phenazine methosulphate and 0.2 M Tris–HCl (pH 8.0). After a 30-min incubation, the reaction was stopped by adding 50 µl of 1 M acetic acid to each well and absorbance was measured at 490 nm using Victor2 plate reader (PerkinElmer, Turku, Finland). Spontaneous LDH release was measured from untreated cells, maximal LDH release from cells lysed with 0.9% Triton X-100 and background absorbance was measured from wells without cells. After background extraction, cytotoxicity was calculated as follows: cytotoxicity (%) = [(sample − spontaneous LDH release)/(maximal LDH release − spontaneous LDH release)] × 100. For quantification of metabolic activity, 3-(4,5-dimethylthiazol-2-yl)-2,5-diphenyltetrazolium bromide (MTT) was added to the cells at a final concentration of 0.5 mg/ml followed by 2 h incubation in cell culture conditions. […] Absorbance was measured at 550 nm and absorbance at 650 nm was subtracted as background. […]

hiPSC-CMs = test: MTT assay in hiPSC-CMs; format: cell-based, human; conditions: 24 h
Method: as §1

[2] = test system: GATA4–NKX2-5 transcriptional synergy; design: method as in Välimäki et al. [2017]; conditions: ref Välimäki et al. [2017]; cited from earlier work
NRVCs = test system: NRVCs; design: method as in Välimäki et al. [2017]; conditions: concentrations up to 50 µM; ref Välimäki et al. [2017]; cited from earlier work

CCN(CC)c1ccc(NC(=O)c2c(C)noc2-c2cc(C)on2)cc1 [3i-1047]
increase in metabolic activity in NRVCs [1]: not observed
increase in hiPSC-CM metabolic activity (hiPSC-CMs): 51%

CCN(CC)c1ccc(NC(=O)c2c(-c3ccccc3)noc2C)cc1 [3i-1000]
GATA4-induced synergistic transactivation of a promoter sequence containing NKX2-5 binding sites [2]: inhibits
toxicity in NRVCs (NRVCs): no toxicity
